The values below come from US5171835A, “LHRH antagonists” (The Administrators of the Tulane Educational Fund, priority 1991, dated 1992).

Experiment [1] concerns perfused rat pituitary cell system (LH response to LH-RH). As to the kind of experiment: LH-RH inhibiting activity in superfused rat pituitary cell system. The format is cell-based. The method, then: Immediately after that, a mixture containing the same concentration of peptide and 3 nM LHRH is administered for 3 min. This was followed by four consecutive infusions of 3 nM LHRH for 3 min (1 ml perfusate) at 30 min intervals (30, 60, 90, 120 min). LH content of the 1 ml fractions collected is determined by radioimmunoassay (RIA).

Experiment [2] relates to membrane receptors of human breast cancer cells. As to the kind of experiment: Receptor binding, human breast cancer cell membranes (125I-[D-Trp6]LHRH as labelled ligand). To be noted: 125I-[D-Trp]6 LHRH labelled ligand; for Affinity Constant Ka 1: NB = no binding. As to the method:
Affinity of peptides to rat pituitary and human breast cancer cell membranes is determined by using labelled LHRH and [D-Trp^6 ]LHRH. The assay is carried out similarly to that described by T. Kadar et al., Proc. Natl. Acad. Sci. USA, 85, 890-894 (1988) and M. Fekete et al., Endocrinology, 124, 946-955 (1989).

In experiment [3] the test system is ovulation in 4-day-cycling rats. As to the kind of experiment: In vivo antiovulatory activity in 4-day-cycling rats. Further details: species or system rat. The method, then:
(b) In vivo antiovulatory activity of peptides is determined in 4-day-cycling rats as described [A. Corbin and C. W. Beattie, Endocr. Res. Commun., 2, 1-23 (1975)].

The mark [4] stands for this setting: antagonist to LH-RH ratio 1:1, 0 min.
The mark [5] stands for this setting: antagonist to LH-RH ratio 1:1, 30 min.
[6] abbreviates: antagonist to LH-RH ratio 1:1, 60 min.
[7] abbreviates: antagonist to LH-RH ratio 1:1, 90 min.
The mark [8] stands for this setting: antagonist to LH-RH ratio 3:1, 0 min.
Setting [9] is: antagonist to LH-RH ratio 3:1, 30 min.
[10] abbreviates: antagonist to LH-RH ratio 3:1, 60 min.
Setting [11] is: antagonist to LH-RH ratio 3:1, 90 min.

On to “Ac-D-Nal(2)-D-Phe(4Cl)-D-Pal(3)-Ser-Arg-D-Lys[A2 pr(Ac)2 ]-Leu-Arg-Pro-D-Ala-NH2 [Peptide 2]”, for which the “% inhibition of LH response” value amounted to 26% in experiment [1] (setting [4]); 27% in experiment [1] (setting [5]); 29% in experiment [1] (setting [6]); 25% in experiment [1] (setting [7]); 88% in experiment [1] (setting [8]); 41% in experiment [1] (setting [9]). Moreover, the “% inhibition of LH response” value in experiment [1] (setting [10]) worked out at 13%. In experiment [2], the “Affinity Constant Ka 2” value was 0.32 µM⁻¹. In experiment [2], the “Affinity Constant Ka 1” value was 16.35 nM⁻¹.

On to “Ac-D-Nal(2)-D-Phe(4Cl)-D-Pal(3)-Ser-Arg-D-Lys[A2 pr(Car)2 ]-Leu-Arg-Pro-D-Ala-NH2 [Peptide 1]”, for which the “% inhibition of LH response” value in experiment [1] (setting [4]) came out at 80%; in experiment [1] (setting [5]), 46%; in experiment [1] (setting [6]), 31%; in experiment [1] (setting [8]), 95%; in experiment [1] (setting [9]) it was 59%; in experiment [1] (setting [10]) it was 55%. Moreover, the “% inhibition of LH response” value in experiment [1] (setting [11]) is recorded as 52%. Moreover, the “Affinity Constant Ka 2” value in experiment [2] is 3.15 µM⁻¹. For the same substance, in experiment [2], the “Affinity Constant Ka 1” value was determined as 7.07 nM⁻¹.

In the case of “Ac-D-Nal(2)-D-Phe(4Cl)-D-Pal(3)-Ser-Arg-D-Lys[A2 pr(EtCar)2 ]-Leu-Arg-Pro-D-Ala-NH2 [Peptide 4]”, the “% inhibition of LH response” value is recorded as 91% in experiment [1] (setting [8]), 50% in experiment [1] (setting [9]), 42% in experiment [1] (setting [10]) and 41% in experiment [1] (setting [11]). Besides, in experiment [2], the “Affinity Constant Ka 2” value was determined as 0.05 µM⁻¹. In addition, the “Affinity Constant Ka 1” value in experiment [2] amounted to 9.71 nM⁻¹.

For the substance “Ac-D-Nal(2)-D-Phe(4Cl)-D-Pal(3)-Ser-Arg-D-Lys[A2 pr(For)2 ]-Leu-Arg-Pro-D-Ala-NH2 [Peptide 3]”, the “% inhibition of LH response” value in experiment [1] (setting [8]) is listed as 93%; in experiment [1] (setting [9]), 43%; in experiment [1] (setting [10]), 26%; in experiment [1] (setting [11]) it was 24%.

Regarding “Ac-D-Nal(2)-D-Phe(4Cl)-D-Pal(3)-Ser-Tyr-D-Lys[A2 pr(CHC)2 ]-Leu-Arg-Pro-D-Ala-NH2 [Peptide 12]”, in experiment [2], the “Affinity Constant Ka 2” value came out at 3.57 µM⁻¹ and the “Affinity Constant Ka 1” value came out at 1.68 nM⁻¹.

With “Ac-D-Nal(2)-D-Phe(4Cl)-D-Pal(3)-Ser-Tyr-D-Lys[A2 pr(EtCar)2 ]-Leu-Arg-Pro-D-Ala-NH2 [Peptide 9]”, the “% inhibition of LH response” value came to 90% in experiment [1] (setting [8]) and 72% in experiment [1] (setting [9]). In addition, the “% Blockade of Ovulation” value in experiment [3] (dose 0.75 μg) was 20%; in experiment [3] (dose 1.5 μg) it was 50%. Further, the “Affinity Constant Ka 2” value in experiment [2] amounted to 8.57 µM⁻¹. Besides, the “Affinity Constant Ka 1” value in experiment [2] is 30.92 nM⁻¹.

“Ac-D-Nal(2)-D-Phe(4Cl)-D-Pal(3)-Ser-Tyr-D-Lys[A2 pr(For)2 ]-Leu-Arg-Pro-D-Ala-NH2 [Peptide 10]”: the “% Blockade of Ovulation” value in experiment [3] (dose 0.75 μg) was 67%. Moreover, the “% Blockade of Ovulation” value in experiment [3] (dose 1.5 μg) is given as 100%. In addition, in experiment [2], the “Affinity Constant Ka 2” value stood at 2.11 µM⁻¹ and the “Affinity Constant Ka 1” value was found to be 48.29 nM⁻¹.

Consider “Ac-D-Nal(2)-D-Phe(4Cl)-D-Pal(3)-Ser-Tyr-D-Lys[A2 pr]-Leu-Arg-Pro-D-Ala-NH2 [Peptide 25]”, for which the “% inhibition of LH response” value in experiment [1] (setting [4]) worked out at 57%; in experiment [1] (setting [5]), 49%; in experiment [1] (setting [6]), 43%; in experiment [1] (setting [8]), 85%; in experiment [1] (setting [9]), 69%; in experiment [1] (setting [10]) it was 62%. Moreover, the “% inhibition of LH response” value in experiment [1] (setting [11]) came out at 57%. Also, the “Affinity Constant Ka 2” value in experiment [2] came to 1.29 µM⁻¹. The “Affinity Constant Ka 1” value in experiment [2] turned out to be 3.49 nM⁻¹.

In the case of “Ac-D-Nal(2)-D-Phe(4Cl)-D-Pal(3)-Ser-Tyr-D-Lys[DL-A2 bu(Ac)2 ]-Leu-Arg-Pro-D-Ala-NH2 [Peptide 14]”, the “% inhibition of LH response” value in experiment [1] (setting [8]) amounted to 80%; in experiment [1] (setting [9]) it was 63%; in experiment [1] (setting [10]) it was 51%; in experiment [1] (setting [11]) it was 53%. Besides, the “% Blockade of Ovulation” value in experiment [3] (dose 1.5 μg) is 20%. The “Affinity Constant Ka 2” value in experiment [2] worked out at 0.28 µM⁻¹. In addition, the “Affinity Constant Ka 1” value in experiment [2] is 4.83 nM⁻¹.

Turning to “Ac-D-Nal(2)-D-Phe(4Cl)-D-Pal(3)-Ser-Tyr-D-Lys[DL-A2 bu(Car)2 ]-Leu-Arg-Pro-D-Ala-NH2 [Peptide 16]”, the “% inhibition of LH response” value turned out to be 52% in experiment [1] (setting [4]), 33% in experiment [1] (setting [5]), 24% in experiment [1] (setting [6]) and 28% in experiment [1] (setting [7]). Besides, the “% Blockade of Ovulation” value in experiment [3] (dose 1.5 μg) came to 33%.

In the case of “Ac-D-Nal(2)-D-Phe(4Cl)-D-Pal(3)-Ser-Tyr-D-Lys[DL-A2 bu(For)2 ]-Leu-Arg-Pro-D-Ala-NH2 [Peptide 15]”, the “% inhibition of LH response” value in experiment [1] (setting [4]) worked out at 44%; in experiment [1] (setting [5]), 41%; in experiment [1] (setting [6]), 22%; in experiment [1] (setting [7]), 23%; in experiment [1] (setting [8]) it was 99%; in experiment [1] (setting [9]), 60%. In addition, the “% inhibition of LH response” value in experiment [1] (setting [10]) stood at 34%; in experiment [1] (setting [11]), 21%. The “% Blockade of Ovulation” value is given as 100% in experiment [3] (dose 1.5 μg) and 25% in experiment [3] (dose is 0.375 μg).

With “Ac-D-Nal(2)-D-Phe(4Cl)-D-Pal(3)-Ser-Tyr-D-Lys[DL-A2 bu(LAU)2 ]-Leu-Arg-Pro-D-Ala-NH2 [Peptide 19]”, the “% inhibition of LH response” value in experiment [1] (setting [4]) is 20%; in experiment [1] (setting [5]), 20%; in experiment [1] (setting [6]), 0%; in experiment [1] (setting [7]), 0%. Also, the “Affinity Constant Ka 2” value in experiment [2] came to 0 µM⁻¹. In experiment [2], the “Affinity Constant Ka 1” value was 0 nM⁻¹.

With “Ac-D-Nal(2)-D-Phe(4Cl)-D-Pal(3)-Ser-Tyr-D-Lys[DL-A2 bu(PRL)2 ]-Leu-Arg-Pro-D-Ala-NH2 [Peptide 18]”, the “% inhibition of LH response” value came to 90% in experiment [1] (setting [8]), 71% in experiment [1] (setting [9]), 58% in experiment [1] (setting [10]) and 54% in experiment [1] (setting [11]). Moreover, the “% Blockade of Ovulation” value in experiment [3] (dose 0.75 μg) worked out at 75%. In experiment [2], the “Affinity Constant Ka 2” value was found to be 6.17 µM⁻¹. The “Affinity Constant Ka 1” value in experiment [2] stood at 21.18 nM⁻¹.

Regarding “Ac-D-Nal(2)-D-Phe(4Cl)-D-Pal(3)-Ser-Tyr-D-Lys[DL-A2 bu]-Leu-Arg-Pro-D-Ala-NH2 [Peptide 26]”, the “% inhibition of LH response” value in experiment [1] (setting [4]) came out at 70%; in experiment [1] (setting [5]), 52%; in experiment [1] (setting [6]), 37%; in experiment [1] (setting [8]) it was 90%; in experiment [1] (setting [9]), 75%; in experiment [1] (setting [10]), 62%. Further, in experiment [1] (setting [11]), the “% inhibition of LH response” value is on record as 57%.

On to “Ac-D-Nal(2)-D-Phe(4Cl)-D-Trp-Ser-Arg-D-Lys[A2 pr(Ac)2 ]-Leu-Arg-Pro-D-Ala-NH2 [Peptide 23]”, for which the “% inhibition of LH response” value in experiment [1] (setting [8]) came out at 52%; in experiment [1] (setting [9]), 22%; in experiment [1] (setting [10]) it was 21%; in experiment [1] (setting [11]) it was 22%. Further, the “Affinity Constant Ka 2” value in experiment [2] worked out at 0.14 µM⁻¹. The “Affinity Constant Ka 1” value in experiment [2] stood at 6.87 nM⁻¹.

On to “Ac-D-Nal(2)-D-Phe(4Cl)-D-Trp-Ser-Arg-D-Lys[A2 pr(Car)2 ]-Leu-Arg-Pro-D-Ala-NH2 [Peptide 22]”, for which the “% inhibition of LH response” value in experiment [1] (setting [8]) turned out to be 64%; in experiment [1] (setting [9]), 22%; in experiment [1] (setting [10]), 24%. Also, the “Affinity Constant Ka 2” value in experiment [2] stood at 2.67 µM⁻¹. Further, the “Affinity Constant Ka 1” value in experiment [2] was determined as 4.09 nM⁻¹.

As for “Ac-D-Nal(2)-D-Phe(4Cl)-D-Trp-Ser-Arg-D-Lys[A2 pr(For)2 ]-Leu-Arg-Pro-D-Ala-NH2 [Peptide 24]”, the “% inhibition of LH response” value came to 36% in experiment [1] (setting [4]); 11% in experiment [1] (setting [5]); 0% in experiment [1] (setting [6]); 9% in experiment [1] (setting [7]); 58% in experiment [1] (setting [8]); 5% in experiment [1] (setting [9]). The “% inhibition of LH response” value in experiment [1] (setting [10]) worked out at 18%; in experiment [1] (setting [11]), 27%. The “% Blockade of Ovulation” value in experiment [3] (dose 1.5 μg) is recorded as 50%.
